{"source": "patent US6242429A", "about": "“Arabinosyladenine derivatives” (priority 1998, dated 2001)", "key": {"adenosinedeaminase (ADA) [1]": {"tested_on": "adenosinedeaminase (ADA)", "details": "background statement; cited from earlier work"}, "[2]": {"tested_on": "shingles herpes virus (VZV, Kawaguchi strain)", "assay": "Antiviral activity to shingles herpes virus, plaque numbers on HEL cells", "assay_type": "cell-based, varicella-zoster virus", "details": "incubated one week, FIG. 1 and FIG. 2", "method": "As a test for efficacy of antiviral activity, antiviral activity to shingles herpes virus was measured. Cell-free aricella-zoster virus (VZV) (Kawaguchi strain) was diluted and the resulting solution was layered on HEL cells of a 100% confluent. The layered product was placed in a CO2 incubator of 37° C., shaken every 15 minutes and infected for one hour. The virus solution was removed by suction, then DMEM containing 5% of FCS and a compound of the present invention, a control compound or Ara-A (positive control) was added thereto and the mixture was incubated for one week. The incubated mixture was fixed by formalin, dyed with Crystal Violet and numbers of plaques were measured. The inhibiting rate to shingles virus was determined from the plaque numbers of the control."}, "adenosinedeaminase (ADA) [3]": {"tested_on": "adenosinedeaminase (ADA)", "assay": "Stability to ADA, enzymatic reaction followed by decrease in UV absorption at 265 nm", "assay_type": "in vitro ADME", "details": "0.1 mM compound, 75 mM phosphate buffer pH 7.5, 25° C., UV 265 nm", "method": "An enzymatic reaction was carried out to test stability of the compounds to ADA. Thus, 200 μL (final concentration: 0.1 mM) of a 1 mM solution of a compound of the present invention, a control compound or Ara-A (control), 1.5 mL of a 0.1 M phosphate buffer (pH 7.5; final concentration: 75 mM) and 300 μL of a 200 units/mL enzyme solution (final concentration: […]) were placed in a UV cell and the decrease in ultraviolet absorption at 265 nm with a lapse of time was measured by an ultraviolet absorption meter. The enzymatic reaction was carried out at 25° C. As the enzymatic reaction proceeded, an ultraviolet absorption at 265 nm decreased and said rate of decrease in ultraviolet absorption was expressed as a relative enzymatic reaction rate."}}, "note": "“Also recorded” adds a separate entry of the source.", "data": [{"smiles": "Nc1ncnc2c1ncn2[C@@H]1O[C@H](CO)[C@@H](O)[C@@H]1O", "note": "[Ara-A, Arabinosyladenine]", "values": [{"measurement": "metabolism by ADA in the blood stream", "setting": "adenosinedeaminase (ADA) [1]", "value": "quickly metabolized by adenosinedeaminase (ADA) in the blood stream to hypoxanthine arabinoside"}]}, {"smiles": "Cc1nc(N)c2ncn([C@@H]3O[C@H](CO)[C@@H](O)[C@@H]3O)c2n1", "note": "[control compound A, 9-(β-D-arabinofuranosyl)-2-methyladenine]", "values": [{"measurement": "antiviral activity to shingles virus (inhibiting rate from plaque numbers)", "setting": "[2]", "value": "no strong antiviral action is obtained; also recorded: a sufficient antiviral action is not achieved"}, {"measurement": "resistance (stability) to metabolism by ADA, relative enzymatic reaction rate", "setting": "adenosinedeaminase (ADA) [3]", "value": "not satisfactory in terms of resistance to ADA; also recorded: did not show a favorable resistance to ADA"}]}, {"smiles": "CCc1nc(N)c2ncn([C@@H]3O[C@H](CO)[C@@H](O)[C@@H]3O)c2n1", "note": "[control compound B, 9-(β-D-arabinofuranosyl)-2-ethyladenine]", "values": [{"measurement": "antiviral activity to shingles virus (inhibiting rate from plaque numbers)", "setting": "[2]", "value": "no strong antiviral action is obtained; also recorded: a sufficient antiviral action is not achieved"}, {"measurement": "resistance (stability) to metabolism by ADA, relative enzymatic reaction rate", "setting": "adenosinedeaminase (ADA) [3]", "value": "not satisfactory in terms of resistance to ADA; also recorded: did not show a favorable resistance to ADA"}]}]}
